Molecular target: T1, FLAG-tagged PRMT6 (Homo sapiens, UniProt Q96LA8)
T1 construct: The complete ORFs of human PRMT3 and PRMT6 were inserted; made in house; host or cells: Sf9 insect cells (baculovirus)
Assay: Fluorescence-based in vitro PRMT assay (F-PRMT assay), PRMT6
Format: biochemical
Details: Table S2, 100 µM compound, n=3; for Experimental result (PRMT6): vs solvent control = 100%, racemates used
Excerpt: To evaluate the effects of the selected candidate molecules on the catalytic activity of type I enzymes, we employed a quantitative fluorescence-based in vitro PRMT activity (F-PRMT) assay using recombinant FLAG-tagged PRMT proteins expressed and affinity-purified from baculovirus-infected Sf9 cells (SI Figure S1, SI Figure S2A).
Human cell lines (PaTu8988T, PANC-1) were obtained from ATCC (American Type Culture Collection) and cultured in DMEM supplemented with 10% fetal calf serum (FCS, Gibco/BRL), 1% penicillin/streptomycin at 37 °C and 5% CO2. […] For PRMT1 inhibition, cells were treated with type I PRMT inhibitor MS023 hydrochloride (Biomol). For induction of genotoxic stress, cells were treated with gemcitabine (LC Laboratories). […] The following plasmids were used: pFASTBAC-FLAG-rat PRMT1, pFASTBAC-FLAG-mouse PRMT4, and pGEX-GAR. The complete ORFs of human PRMT3 and PRMT6 were inserted into the pFASTBAC HT-3xFLAG B vector via BamHI/HindIII and BamHI/XhoI sites, respectively.
For PRMT protein expression in insect cells, recombinant baculovirus (bacmid) was generated using the Bac-to-Bac baculovirus system (Invitrogen). Sf9 cells were transfected with bacmid DNA using X-tremeGENE HP DNA transfection reagent (Sigma-Aldrich) according to the manufacturer's instructions. After 3–5 days, supernatants were collected, filtered, and used to infect Sf9 cells to amplify the virus. After 2 rounds of virus amplification and estimation of the final P3 virus titer, the P3 virus (2–5 μL/10^6 cells) was applied for large-scale infection of 200 × 10^6 Sf9 cells in suspension culture at a density of 1 × 10^6 cells/mL. Cells were harvested 5–6 days post-infection by centrifugation at 500 g for 5 min at room temperature. Protein purification from baculovirus-infected Sf9 cells was performed as previously described. , Cells were lysed in BC buffer (20 mM HEPES pH 7.9, 250 mM NaCl, 10% (v/v) glycerin, 0.4 mM EDTA, 1 mM DTT) containing a protease inhibitor cocktail (Roche) by 3 freeze-thaw cycles. After centrifugation at 11,000 rpm (Sorval SS34 rotor) and 4 °C for 1 h, the supernatant (whole cell protein extract) was incubated with anti-FLAG M2 Affinity Gel (Cytiva) at 4 °C and under agitation for 4 h. Subsequently, beads were washed in BC buffer containing various NaCl concentrations (once in BC with 1 M NaCl, twice in BC with 500 mM NaCl, twice in BC with 250 mM NaCl and twice in BC with 100 mM NaCl). FLAG-tagged proteins were either maintained bead-bound as a 50% (v/v) slurry in BC buffer with 100 mM NaCl and stored at −80 °C or were eluted in the appropriate elution buffer (depending on the subsequent assay) containing 0.25 mg/mL 3xFLAG peptides (Sigma-Aldrich) at 4 °C for 30–45 min. To remove the FLAG-peptides from the eluate, dialysis was performed in elution buffer containing 10% (v/v) glycerol at 4 °C for 4–6 h using Slide-A-Lyzer Dialysis Devices (Thermo Fisher Scientific) according to the manufacturer’s recommendations.
In the first step, the fluorogenic substrate Nα-Benzoyl-L-arginine-7-amido-4-methylcoumarin (Bz-Arg-AMC, Sigma-Aldrich) undergoes methylation by PRMTs upon the addition of the cofactor SAM. In the second reaction step, trypsin cleaves the nonmethylated substrate, leading to the generation of the 7-amino-4-methylcoumarin product, which can be quantified by subsequent fluorescence measurement (excitation: 355 nm, emission: 460 nm). The first reaction was conducted with bead-bound PRMTs at a total volume of 100 μL. Each condition was performed as a technical triplicate to determine the mean and the standard deviation. […] For the negative controls, SAM was substituted with assay buffer. The incubation was continued at 37 °C and under agitation (1,000 rpm) for a duration of 2 h.

T1 sequence (Q96LA8 whole entry): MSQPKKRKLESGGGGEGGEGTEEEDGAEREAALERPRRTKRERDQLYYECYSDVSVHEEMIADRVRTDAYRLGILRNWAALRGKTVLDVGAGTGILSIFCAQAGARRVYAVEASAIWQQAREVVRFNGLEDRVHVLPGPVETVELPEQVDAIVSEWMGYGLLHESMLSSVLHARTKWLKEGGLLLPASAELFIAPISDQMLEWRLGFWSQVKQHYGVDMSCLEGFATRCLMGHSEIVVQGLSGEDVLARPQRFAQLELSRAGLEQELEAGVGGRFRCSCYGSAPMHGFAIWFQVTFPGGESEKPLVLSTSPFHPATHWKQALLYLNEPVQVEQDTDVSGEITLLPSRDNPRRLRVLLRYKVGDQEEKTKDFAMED

| Compound | Experimental result (PRMT6) | Efficacy ±∆% (PRMT6) (mean % difference vs solvent control (100%)) [%] |
| --- | --- | --- |
| CN1CCC[C@H]1CCn1ccnc1-c1ccc2nonc2c1 (racemic) [Compound K002FT007] | n.e. (did not significantly affect the catalytic activity of the intended PRMT (less than ±6% change or not significant p-value), are marked with n.e. (no effect)) | – |
| Cc1nc(N)cc(NC[C@H]2CC(=O)N(c3ccccc3)C2)n1 (racemic) [Compound K002FT010] | n.e. (did not significantly affect the catalytic activity of the intended PRMT (less than ±6% change or not significant p-value), are marked with n.e. (no effect)) | – |
| CN[C@H](CO)c1cc(OC)ccc1Br (racemic) [Compound K002FT016] | n.e. (did not significantly affect the catalytic activity of the intended PRMT (less than ±6% change or not significant p-value), are marked with n.e. (no effect)) | – |
| COc1ccc(Cl)cc1NC(=O)[C@@H]1CCCN1 (racemic) [Compound K002JS001] | n.e. (did not significantly affect the catalytic activity of the intended PRMT (less than ±6% change or not significant p-value), are marked with n.e. (no effect)) | – |
| Nc1nccc(N2CC[C@@]3(CCCN(C4CCOCC4)C3=O)C2)n1 (racemic) [Compound K002JS009] | n.e. (did not significantly affect the catalytic activity of the intended PRMT (less than ±6% change or not significant p-value), are marked with n.e. (no effect)) | – |
| CN1CC[C@@](O)(CNCCc2cccc(OC(F)(F)F)c2)C1 (racemic) [Compound K600JK012] | n.e. (did not significantly affect the catalytic activity of the intended PRMT (less than ±6% change or not significant p-value), are marked with n.e. (no effect)) | – |
| CNCCNC(=O)NC[C@@]12CNC[C@@]1(C(F)(F)F)C2 (racemic) [Compound K600JK013] | n.e. (did not significantly affect the catalytic activity of the intended PRMT (less than ±6% change or not significant p-value), are marked with n.e. (no effect)) | – |
| COc1cc(CNCCNCCO)cc(Cl)c1OC(C)C [Compound K002FT001] | n.e. (did not significantly affect the catalytic activity of the intended PRMT (less than ±6% change or not significant p-value), are marked with n.e. (no effect)) | – |
| COCC1(CNCc2nnc([C@H]3C[C@H](N)C3)n2C2CC2)CC1 [Compound K002FT002] | n.e. (did not significantly affect the catalytic activity of the intended PRMT (less than ±6% change or not significant p-value), are marked with n.e. (no effect)) | – |
| CCNc1nc(C)cc(NCCNC(=O)Cc2ccc(F)cc2)n1 [Compound K002FT003] | n.e. (did not significantly affect the catalytic activity of the intended PRMT (less than ±6% change or not significant p-value), are marked with n.e. (no effect)) | – |
| Cc1cccc(-n2ncc3c(NCCN(C)C)ncnc32)c1 [Compound K002FT004] | n.e. (did not significantly affect the catalytic activity of the intended PRMT (less than ±6% change or not significant p-value), are marked with n.e. (no effect)) | – |
| CN(C)CCNc1ncnc2cc(-c3ccc(F)cc3)sc12 [Compound K002FT005] | n.e. (did not significantly affect the catalytic activity of the intended PRMT (less than ±6% change or not significant p-value), are marked with n.e. (no effect)) | – |
| COc1cc(CNCCO)ccc1Oc1nnnn1-c1ccccc1 [Compound K002FT006] | n.e. (did not significantly affect the catalytic activity of the intended PRMT (less than ±6% change or not significant p-value), are marked with n.e. (no effect)) | – |
| Cc1cc(NCCc2nc(C)cc(=O)[nH]2)nc(N2CCCCC2)n1 [Compound K002FT008] | – | -10 |
| CNCC1CCN(Cc2cc(F)ccc2C)CC1 [Compound K002FT009] | n.e. (did not significantly affect the catalytic activity of the intended PRMT (less than ±6% change or not significant p-value), are marked with n.e. (no effect)) | – |
| COc1cc(CNCCN(C)C)ccc1OCc1nc(C)no1 [Compound K002FT011] | n.e. (did not significantly affect the catalytic activity of the intended PRMT (less than ±6% change or not significant p-value), are marked with n.e. (no effect)) | – |
| Cc1cc(NC(=O)CN(C)C)cc(N2CCN(C(C)C)CC2)c1 [Compound K002FT012] | n.e. (did not significantly affect the catalytic activity of the intended PRMT (less than ±6% change or not significant p-value), are marked with n.e. (no effect)) | – |
| Clc1ccc(N2CCN(c3ncnc4[nH]ccc34)CC2)nc1 [Compound K002FT013] | n.e. (did not significantly affect the catalytic activity of the intended PRMT (less than ±6% change or not significant p-value), are marked with n.e. (no effect)) | – |
| CCc1c(-c2cccc3ccccc23)nc2ccc(NC(=O)CN)cn12 [Compound K002FT014] | n.e. (did not significantly affect the catalytic activity of the intended PRMT (less than ±6% change or not significant p-value), are marked with n.e. (no effect)) | – |
| c1ccc2oc(C3CCN(Cc4c[nH]cn4)CC3)nc2c1 [Compound K002FT015] | n.e. (did not significantly affect the catalytic activity of the intended PRMT (less than ±6% change or not significant p-value), are marked with n.e. (no effect)) | – |
| CN(C)CC(=O)Nc1cnccc1N1CCOCC1 [Compound K002FT018] | n.e. (did not significantly affect the catalytic activity of the intended PRMT (less than ±6% change or not significant p-value), are marked with n.e. (no effect)) | – |
| CNCC(=O)NCCc1ccc(OC)c(OC)c1 [Compound K002JS002] | n.e. (did not significantly affect the catalytic activity of the intended PRMT (less than ±6% change or not significant p-value), are marked with n.e. (no effect)) | – |
| COc1cccc(NC(=O)CNCCC(N)=O)c1 [Compound K002JS005] | n.e. (did not significantly affect the catalytic activity of the intended PRMT (less than ±6% change or not significant p-value), are marked with n.e. (no effect)) | – |
| COc1cc(CN2CCC(CN)C2)cc(Cl)c1OC (stereo not shown) [Compound K002JS010] | n.e. (did not significantly affect the catalytic activity of the intended PRMT (less than ±6% change or not significant p-value), are marked with n.e. (no effect)) | – |
| NCCCCNCc1cc(Br)cs1 [Compound K002JS012] | n.e. (did not significantly affect the catalytic activity of the intended PRMT (less than ±6% change or not significant p-value), are marked with n.e. (no effect)) | – |
| O=[N+]([O-])c1ccc(Sc2n[nH]c(Cc3ccccc3)n2)nc1 [Compound K002JS015] | n.e. (did not significantly affect the catalytic activity of the intended PRMT (less than ±6% change or not significant p-value), are marked with n.e. (no effect)) | – |
| OC1(c2c[nH]nn2)CCN(CCOc2ccc(Cl)cc2)C1 (stereo not shown) [Compound K002JS017] | n.e. (did not significantly affect the catalytic activity of the intended PRMT (less than ±6% change or not significant p-value), are marked with n.e. (no effect)) | – |
| COc1cc(CNC(C)C)ccc1OCc1nc(C)no1 [Compound K002JS018] | n.e. (did not significantly affect the catalytic activity of the intended PRMT (less than ±6% change or not significant p-value), are marked with n.e. (no effect)) | – |

From PMC13576449, “Small-Molecule Activators of PRMT1: Discovery, SAR Analyses, and Proapoptotic Effects in Pancreatic Cancer Cells” (Journal of Medicinal Chemistry, 2026)
